{
  "source": "ChEMBL document CHEMBL3046429",
  "about": "“Synthesis, molecular modeling study, preliminary antibacterial, and antitumor evaluation of N-substituted naphthalimides and their structural analogues” (2013)",
  "format_in_all_cases": "functional",
  "key": {"OVCAR-4": {"tested_on": "OVCAR-4", "assay": "Growth inhibition of Homo sapiens (human) OVCAR4 cells at 10 uM after 48 hr by coulter counter analysis", "conditions": "OVCAR-4, 48 h, read-out: GI"}, "A549": {"tested_on": "A549", "assay": "Growth inhibition of Homo sapiens (human) A549/ATCC cells at 10 uM after 48 hr by coulter counter analysis", "conditions": "A549, 48 h, read-out: GI"}, "NCI-H226": {"tested_on": "NCI-H226", "assay": "Growth inhibition of Homo sapiens (human) NCI-H226 cells at 10 uM after 48 hr by coulter counter analysis", "conditions": "NCI-H226, 48 h, read-out: GI"}, "MDA-MB-468": {"tested_on": "MDA-MB-468", "assay": "Growth inhibition of Homo sapiens (human) MDA-MB-468 cells at 10 uM after 48 hr by coulter counter analysis", "conditions": "MDA-MB-468, 48 h, read-out: GI"}, "DU-145": {"tested_on": "DU-145", "assay": "Growth inhibition of Homo sapiens (human) DU145 cells at 10 uM after 48 hr by coulter counter analysis", "conditions": "DU-145, 48 h, read-out: GI"}, "HCC 2998": {"tested_on": "HCC 2998", "assay": "Growth inhibition of Homo sapiens (human) HCC2998 cells at 10 uM after 48 hr by coulter counter analysis", "conditions": "HCC 2998, 48 h, read-out: GI"}, "A498": {"tested_on": "A498", "assay": "Growth inhibition of Homo sapiens (human) A498 cells at 10 uM after 48 hr by coulter counter analysis", "conditions": "A498, 48 h, read-out: GI"}, "LOX IMVI": {"tested_on": "LOX IMVI", "assay": "Growth inhibition of Homo sapiens (human) LOXIMVI cells at 10 uM after 48 hr by coulter counter analysis", "conditions": "read-out: GI"}, "OVCAR-3": {"tested_on": "OVCAR-3", "assay": "Growth inhibition of Homo sapiens (human) OVCAR3 cells at 10 uM after 48 hr by coulter counter analysis", "conditions": "OVCAR-3, 48 h, read-out: GI"}, "OVCAR-8": {"tested_on": "OVCAR-8", "assay": "Growth inhibition of Homo sapiens (human) OVCAR8 cells at 10 uM after 48 hr by coulter counter analysis", "conditions": "OVCAR-8, 48 h, read-out: GI"}, "Bacillus subtilis": {"tested_on": "Bacillus subtilis", "assay": "Antibacterial activity against Bacillus subtilis assessed as growth inhibition after 24 hr by two fold serial dilution method"}, "PC-3": {"tested_on": "PC-3", "assay": "Growth inhibition of Homo sapiens (human) PC3 cells at 10 uM after 48 hr by coulter counter analysis", "conditions": "PC-3, 48 h, read-out: GI"}, "TK-10": {"tested_on": "TK-10", "assay": "Growth inhibition of Homo sapiens (human) TK10 cells at 10 uM after 48 hr by coulter counter analysis", "conditions": "TK-10, 48 h, read-out: GI"}, "COLO 205": {"tested_on": "COLO 205", "assay": "Growth inhibition of Homo sapiens (human) COLO205 cells at 10 uM after 48 hr by coulter counter analysis", "conditions": "COLO 205, 48 h, read-out: GI"}, "EKVX": {"tested_on": "EKVX", "assay": "Growth inhibition of Homo sapiens (human) EKVX cells at 10 uM after 48 hr by coulter counter analysis", "conditions": "read-out: GI"}, "SF-295": {"tested_on": "SF-295", "assay": "Growth inhibition of Homo sapiens (human) SF295 cells at 10 uM after 48 hr by coulter counter analysis", "conditions": "SF-295, 48 h, read-out: GI"}, "Pseudomonas aeruginosa": {"tested_on": "Pseudomonas aeruginosa", "assay": "Antibacterial activity against Pseudomonas aeruginosa assessed as growth inhibition after 24 hr by two-fold serial dilution method"}, "SF-268": {"tested_on": "SF-268", "assay": "Growth inhibition of Homo sapiens (human) SF268 cells at 10 uM after 48 hr by coulter counter analysis", "conditions": "SF-268, 48 h, read-out: GI"}, "SNB-75": {"tested_on": "SNB-75", "assay": "Growth inhibition of Homo sapiens (human) SNB75 cells at 10 uM after 48 hr by coulter counter analysis", "conditions": "SNB-75, 48 h, read-out: GI"}, "CAKI-1": {"tested_on": "CAKI-1", "assay": "Growth inhibition of Homo sapiens (human) CAKI-1 cells at 10 uM after 48 hr by coulter counter analysis", "conditions": "CAKI-1, 48 h, read-out: GI"}, "HCT-116": {"tested_on": "HCT-116", "assay": "Growth inhibition of Homo sapiens (human) HCT116 cells at 10 uM after 48 hr by coulter counter analysis", "conditions": "HCT-116, 48 h, read-out: GI"}},
  "data": [
    {"smiles": "O=C1c2nccnc2C(=O)N1c1c(Cl)cc(Cl)cc1Cl", "values": [
      {"measurement": "inhibition of growth at 10 µM", "setting": "OVCAR-4", "result": -0.64, "unit": "%"},
      {"measurement": "inhibition of growth at 10 µM", "setting": "A549", "result": -11.7, "unit": "%"},
      {"measurement": "inhibition of growth at 10 µM", "setting": "NCI-H226", "result": 9.41, "unit": "%"},
      {"measurement": "inhibition of growth at 10 µM", "setting": "MDA-MB-468", "result": 17.8, "unit": "%"},
      {"measurement": "inhibition of growth at 10 µM", "setting": "DU-145", "result": 18.6, "unit": "%"},
      {"measurement": "inhibition of growth at 10 µM", "setting": "HCC 2998", "result": -4.24, "unit": "%"},
      {"measurement": "inhibition of growth at 10 µM", "setting": "A498", "result": 20.9, "unit": "%"},
      {"measurement": "inhibition of growth at 10 µM", "setting": "LOX IMVI", "result": -0.26, "unit": "%"},
      {"measurement": "inhibition of growth at 10 µM", "setting": "OVCAR-3", "result": -15.4, "unit": "%"},
      {"measurement": "inhibition of growth at 10 µM", "setting": "OVCAR-8", "result": 11, "unit": "%"},
      {"measurement": "MIC", "setting": "Bacillus subtilis", "result": 20, "unit": "µg/mL"},
      {"measurement": "inhibition of growth at 10 µM", "setting": "PC-3", "result": 22.7, "unit": "%"},
      {"measurement": "inhibition of growth at 10 µM", "setting": "TK-10", "result": -4.45, "unit": "%"},
      {"measurement": "inhibition of growth at 10 µM", "setting": "COLO 205", "result": 8.27, "unit": "%"},
      {"measurement": "inhibition of growth at 10 µM", "setting": "EKVX", "result": 8.2, "unit": "%"},
      {"measurement": "inhibition of growth at 10 µM", "setting": "SF-295", "result": -2.42, "unit": "%"},
      {"measurement": "MIC", "setting": "Pseudomonas aeruginosa", "result": 20, "unit": "µg/mL"},
      {"measurement": "inhibition of growth at 10 µM", "setting": "SF-268", "result": 7.64, "unit": "%"},
      {"measurement": "inhibition of growth at 10 µM", "setting": "SNB-75", "result": 47.4, "unit": "%"},
      {"measurement": "inhibition of growth at 10 µM", "setting": "CAKI-1", "result": 18, "unit": "%"},
      {"measurement": "inhibition of growth at 10 µM", "setting": "HCT-116", "result": 1.17, "unit": "%"}
    ]}
  ]
}
